Legend:
Conditions in all cases: incubation time: 72 h
HCC1143 [1] = assay: drug sensitivity score (DSS), CellTiter-Glo (DSS (AUC-based score)); higher = stronger drug effect (viability inhibition or cytotoxicity); extreme values may be limits of the assay
Summary of the method: (§1)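 A drug sensitivity score was derived from the area under each fitted dose-response curve. Breast cancer cells (20 µl suspension) were seeded onto compound in 384-well plates, using 5 concentrations 10-fold apart over a compound-specific 10,000-fold range, and incubated 72 h. Readouts were CellTox Green fluorescence and then CellTiter-Glo luminescence, with every plate normalised to 0.1 % DMSO and a positive kill control.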

HCC1599 [2] = assay: as above
Summary of the method: as §1

CAL-148 [3] = assay: as above
Summary of the method: as §1

CAL-120 [4] = assay: as above
Summary of the method: as §1

MDA-MB-453 [5] = assay: as above
Summary of the method: as §1

SK-BR-3 = assay: as above
Summary of the method: as §1

MDA-MB-231 [6] = assay: as above
Summary of the method: as §1

Hs578T = assay: as above
Summary of the method: as §1

CAL-85-1 [7] = assay: as above
Summary of the method: as §1

DU-4475 [8] = assay: as above
Summary of the method: as §1

HCC1937 [9] = assay: as above
Summary of the method: as §1

MDA-MB-468 [10] = assay: as above
Summary of the method: as §1

MCF-10A [11] = assay: as above
Summary of the method: as §1

CAL-51 [12] = assay: as above
Summary of the method: as §1

MFM-223 [13] = assay: as above
Summary of the method: as §1

MDA-MB-436 = assay: as above
Summary of the method: as §1

HDQ-P1 [14] = assay: as above
Summary of the method: as §1

BT-474 [15] = assay: as above
Summary of the method: as §1

BT-549 [16] = assay: as above
Summary of the method: as §1

HCC1143 [17] = assay: drug sensitivity score (DSS), CellTox Green (DSS (AUC-based score)); higher = stronger drug effect (viability inhibition or cytotoxicity); extreme values may be limits of the assay
Summary of the method: as §1

HCC1599 [18] = assay: as above
Summary of the method: as §1

CAL-148 [19] = assay: as above
Summary of the method: as §1

CAL-120 [20] = assay: as above
Summary of the method: as §1

MDA-MB-453 [21] = assay: as above
Summary of the method: as §1

MDA-MB-231 [22] = assay: as above
Summary of the method: as §1

CAL-85-1 [23] = assay: as above
Summary of the method: as §1

DU-4475 [24] = assay: as above
Summary of the method: as §1

HCC1937 [25] = assay: as above
Summary of the method: as §1

MDA-MB-468 [26] = assay: as above
Summary of the method: as §1

MCF-10A [27] = assay: as above
Summary of the method: as §1

CAL-51 [28] = assay: as above
Summary of the method: as §1

MFM-223 [29] = assay: as above
Summary of the method: as §1

HDQ-P1 [30] = assay: as above
Summary of the method: as §1

BT-474 [31] = assay: as above
Summary of the method: as §1

BT-549 [32] = assay: as above
Summary of the method: as §1

c1ccc([C@H]2CN3CCSC3=N2)cc1 [Levamisole]
drug sensitivity score (HCC1143 [1]): 0 | drug sensitivity score (HCC1599 [2]): 0 | drug sensitivity score (CAL-148 [3]): 0 | drug sensitivity score (CAL-120 [4]): 0 | drug sensitivity score (MDA-MB-453 [5]): 0 | drug sensitivity score (SK-BR-3): 0 | drug sensitivity score (MDA-MB-231 [6]): 0 | drug sensitivity score (Hs578T): 0 | drug sensitivity score (CAL-85-1 [7]): 0 | drug sensitivity score (DU-4475 [8]): 0 | drug sensitivity score (HCC1937 [9]): 0 | drug sensitivity score (MDA-MB-468 [10]): 0 | drug sensitivity score (MCF-10A [11]): 0 | drug sensitivity score (CAL-51 [12]): 0 | drug sensitivity score (MFM-223 [13]): 0 | drug sensitivity score (MDA-MB-436): 0 | drug sensitivity score (HDQ-P1 [14]): 0 | drug sensitivity score (BT-474 [15]): 0 | drug sensitivity score (BT-549 [16]): 0 | drug sensitivity score (HCC1143 [17]): 0 | drug sensitivity score (HCC1599 [18]): 0 | drug sensitivity score (CAL-148 [19]): 0 | drug sensitivity score (CAL-120 [20]): 0 | drug sensitivity score (MDA-MB-453 [21]): 1.72 | drug sensitivity score (MDA-MB-231 [22]): 1.47 | drug sensitivity score (CAL-85-1 [23]): 0 | drug sensitivity score (DU-4475 [24]): 0 | drug sensitivity score (HCC1937 [25]): 0 | drug sensitivity score (MDA-MB-468 [26]): 0 | drug sensitivity score (MCF-10A [27]): 0 | drug sensitivity score (CAL-51 [28]): 0 | drug sensitivity score (MFM-223 [29]): 0 | drug sensitivity score (HDQ-P1 [30]): 2.62 | drug sensitivity score (BT-474 [31]): 0 | drug sensitivity score (BT-549 [32]): 0

Source: the supplement of paper PMC4862054
